Experimental data taken from US20150239889A1, “PYRAZOLOPYRIMIDINE COMPOUND” (MITSUBISHI TANABE PHARMA CORPORATION, priority 2012, published 2015).

Assays:
human HIF-PHD2 = molecular target: T1, human HIF-PHD2 (Homo sapiens, UniProt Q9GZT9); test: HIF-PHD inhibition assay (fluorescence polarization), human HIF-PHD2; format: biochemical; conditions: 2-oxoglutaric acid 3.33 μmol/L
T1 construct: purchased CrystalGenomics Ltd
Procedure, shortened: (§1)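 A 5′-fluoresceinamide-labelled substrate with aminocaproic acid linker is used. Enzyme activity is computed by subtracting pre-enzyme polarization from post-enzyme polarization, expressed in mP.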

Hep3B cells = test: EPO production assay (ELISA of culture supernatant); format: cell-based; conditions: Homo sapiens, 3 μmol/L test compound, 48 hours, relative to control (0.1% DMSO), read-out: EPO production stimulation rate with 3 μmol/L test compound
Procedure, shortened: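 Values are fold EPO production at 3 μmol/L compound relative to untreated control, quantified by ELISA of culture supernatant. Hep3B cells were exposed for 48 h in MEM containing 0.5% FBS and 0.1% DMSO.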

human HIF-PHD3 = molecular target: T2, human HIF-PHD3 (Homo sapiens, UniProt Q9H6Z9); test: HIF-PHD inhibition assay (fluorescence polarization), human HIF-PHD3; format: biochemical; conditions: 2-oxoglutaric acid 166 μmol/L
T2 construct: purchased CrystalGenomics Ltd
T2 sequence (Q9H6Z9 whole entry): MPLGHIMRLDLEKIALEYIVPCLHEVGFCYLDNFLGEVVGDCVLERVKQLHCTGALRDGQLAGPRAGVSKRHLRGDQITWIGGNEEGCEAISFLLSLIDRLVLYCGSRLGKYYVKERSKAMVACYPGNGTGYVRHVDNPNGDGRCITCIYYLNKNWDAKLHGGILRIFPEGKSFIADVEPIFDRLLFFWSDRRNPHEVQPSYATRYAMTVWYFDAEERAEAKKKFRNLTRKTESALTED
Procedure, shortened: as §1

T1 sequence (Q9GZT9 2-426 limits assumed): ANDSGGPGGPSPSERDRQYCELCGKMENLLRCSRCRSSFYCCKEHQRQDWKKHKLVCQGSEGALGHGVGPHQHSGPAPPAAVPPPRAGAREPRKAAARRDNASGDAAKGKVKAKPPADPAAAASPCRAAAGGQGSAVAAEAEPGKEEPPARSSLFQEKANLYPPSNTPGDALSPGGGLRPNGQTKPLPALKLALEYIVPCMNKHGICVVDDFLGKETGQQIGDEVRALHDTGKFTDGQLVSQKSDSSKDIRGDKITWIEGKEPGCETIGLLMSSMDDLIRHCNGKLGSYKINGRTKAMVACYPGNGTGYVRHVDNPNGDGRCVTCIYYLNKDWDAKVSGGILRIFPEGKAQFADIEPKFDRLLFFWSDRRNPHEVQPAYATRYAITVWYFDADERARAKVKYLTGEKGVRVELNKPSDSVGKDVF

IC50 (human HIF-PHD2) | IC50 (human HIF-PHD3) | Structure (SMILES) | fold induction at 3 µM (Hep3B cells)
29 nM | 290 nM | O=C(O)c1cnn(-c2nc(O)c3c(cnn3CC3Cc4ccccc4C3)n2)c1 [Example 154] | 5.4
10 nM | 70 nM | O=C(O)c1cnn(-c2nc(O)c3c(cnn3C[C@H]3CC[C@H](c4ccccc4)CC3)n2)c1 [Example 155] | 11
20 nM | 160 nM | O=C(O)c1cnn(-c2nc(O)c3c(cnn3C[C@H]3CC[C@H](c4ccc(Cl)cc4)CC3)n2)c1 [Example 156] | 24
40 nM | 720 nM | CC1(Cn2ncc3nc(-n4cc(C(=O)O)cn4)nc(O)c32)CCCCC1 [Example 157] | 4
24 nM | 310 nM | O=C(O)c1cnn(-c2nc(O)c3c(cnn3CC3CCCCCC3)n2)c1 [Example 158] | 1.2
110 nM | 380 nM | O=C(O)c1cnn(-c2nc(O)c3c(cnn3CC3CCCCCCC3)n2)c1 [Example 159] | 4.5
71 nM | 380 nM | O=C(O)c1cnn(-c2nc(O)c3c(cnn3CCC3CCCCC3)n2)c1 [Example 160] | 3.6
31 nM | 150 nM | O=C(O)c1cnn(-c2nc(O)c3c(cnn3CCCC3CCCCC3)n2)c1 [Example 161] | 3.1
52 nM | 400 nM | CC1(C)C(Cn2ncc3nc(-n4cc(C(=O)O)cn4)nc(O)c32)C1(C)C [Example 162] | 18
19 nM | 120 nM | O=C(O)c1cnn(-c2nc(O)c3c(cnn3CC[C@H]3CC[C@H](c4ccccc4)CC3)n2)c1 [Example 163] | 13
21 nM | 210 nM | O=C(O)c1cnn(-c2nc(O)c3c(cnn3CCC3Cc4ccccc4C3)n2)c1 [Example 164] | 8.8
12 nM | 210 nM | O=C(O)c1cnn(-c2nc(O)c3c(cnn3CCCCc3ccc(Cl)cc3)n2)c1 [Example 165] | 15
31 nM | 130 nM | O=C(O)c1cnn(-c2nc(O)c3c(cnn3CCCCCc3ccccc3)n2)c1 [Example 166] | 8.1
17 nM | 140 nM | O=C(O)c1cnn(-c2nc(O)c3c(cnn3CCCn3ccc4ccccc43)n2)c1 [Example 167] | 2.1
23 nM | 200 nM | O=C(O)c1cnn(-c2nc(O)c3c(cnn3CCCN(c3ccccc3)c3ccccc3)n2)c1 [Example 168] | 66
19 nM | 280 nM | O=C(O)c1cnn(-c2nc(O)c3c(cnn3CC3CCN(c4ccc(C(F)(F)F)cc4)CC3)n2)c1 [Example 170] | 19
14 nM | 160 nM | O=C(O)c1cnn(-c2nc(O)c3c(cnn3CC3CCN(c4ccc(C(F)(F)F)cn4)CC3)n2)c1 [Example 171] | 11
34 nM | 250 nM | O=C(O)c1cnn(-c2nc(O)c3c(cnn3CCC3CCN(c4ccc(C(F)(F)F)cc4)CC3)n2)c1 [Example 172] | 19
13 nM | 190 nM | O=C(O)c1cnn(-c2nc(O)c3c(cnn3CCCOc3ccccc3C(F)(F)F)n2)c1 [Example 173] | 7.7
32 nM | 570 nM | O=C(O)c1cnn(-c2nc(O)c3c(cnn3CCCOc3cccc(C(F)(F)F)c3)n2)c1 [Example 174] | 9.9
21 nM | 390 nM | O=C(O)c1cnn(-c2nc(O)c3c(cnn3CCCOc3ccc(C(F)(F)F)cc3)n2)c1 [Example 175] | 15
19 nM | 170 nM | O=C(O)c1cnn(-c2nc(O)c3c(cnn3CCCOc3ccc(C(F)(F)F)cc3Cl)n2)c1 [Example 176] | 22
